What was measured:
Rattus norvegicus [1] = assay: Biodistribution in Sprague-Darwley rat blood at 2 min after intravenous administration of 70g; type: ADME, organism-based; settings: in vivo
Rattus norvegicus [2] = assay: Biodistribution in Sprague-Darwley rat fat at 30 min after intravenous administration of 70g; type: ADME, organism-based, Adipose tissue; settings: in vivo, 0.5 h
Rattus norvegicus [3] = assay: Biodistribution in Sprague-Darwley rat heart at 60 min after intravenous administration of 70g; type: ADME, organism-based; settings: in vivo, 1 h
Rattus norvegicus [4] = assay: Biodistribution in Sprague-Darwley rat muscle at 60 min after intravenous administration of 70g; type: ADME, organism-based, Muscle tissue; settings: in vivo, 1 h
Rattus norvegicus [5] = assay: Biodistribution in Sprague-Darwley rat kidney at 60 min after intravenous administration of 70g; type: ADME, organism-based; settings: in vivo, 1 h
Rattus norvegicus [6] = assay: Biodistribution in Sprague-Darwley rat liver at 15 min after intravenous administration of 70g; type: ADME, organism-based; settings: in vivo, 0.25 h
Rattus norvegicus [7] = assay: Biodistribution in Sprague-Darwley rat lung at 120 min after intravenous administration of 70g; type: ADME, organism-based; settings: in vivo, 2 h
Rattus norvegicus [8] = assay: Biodistribution in Sprague-Darwley rat kidney at 120 min after intravenous administration of 70g; type: ADME, organism-based; settings: in vivo, 2 h
Rattus norvegicus [9] = assay: Biodistribution in Sprague-Darwley rat blood at 30 min after intravenous administration of 70g; type: ADME, organism-based; settings: in vivo, 0.5 h
Rattus norvegicus [10] = assay: Biodistribution in Sprague-Darwley rat heart at 30 min after intravenous administration of 70g; type: ADME, organism-based; settings: in vivo, 0.5 h
Rattus norvegicus [11] = assay: Biodistribution in Sprague-Darwley rat blood at 15 min after intravenous administration of 70g; type: ADME, organism-based; settings: in vivo, 0.25 h
Rattus norvegicus [12] = assay: Biodistribution in Sprague-Darwley rat blood at 60 min after intravenous administration of 70g; type: ADME, organism-based; settings: in vivo, 1 h
Rattus norvegicus [13] = assay: Biodistribution in Sprague-Darwley rat rest of brain at 120 min after intravenous administration of 70g; type: ADME, organism-based; settings: in vivo, 2 h
Rattus norvegicus [14] = assay: Biodistribution in Sprague-Darwley rat rest of brain at 60 min after intravenous administration of 70g; type: ADME, organism-based; settings: in vivo, 1 h
Rattus norvegicus [15] = assay: Biodistribution in Sprague-Darwley rat liver at 60 min after intravenous administration of 70g; type: ADME, organism-based; settings: in vivo, 1 h
Rattus norvegicus [16] = assay: Biodistribution in Sprague-Darwley rat kidney at 30 min after intravenous administration of 70g; type: ADME, organism-based; settings: in vivo, 0.5 h
Rattus norvegicus [17] = assay: Biodistribution in Sprague-Darwley rat rest of brain at 2 min after intravenous administration of 70g; type: ADME, organism-based; settings: in vivo
Rattus norvegicus [18] = assay: Biodistribution in Sprague-Darwley rat liver at 30 min after intravenous administration of 70g; type: ADME, organism-based; settings: in vivo, 0.5 h
Rattus norvegicus [19] = assay: Biodistribution in Sprague-Darwley rat lung at 60 min after intravenous administration of 70g; type: ADME, organism-based; settings: in vivo, 1 h
Rattus norvegicus [20] = assay: Biodistribution in Sprague-Darwley rat liver at 120 min after intravenous administration of 70g; type: ADME, organism-based; settings: in vivo, 2 h
Rattus norvegicus [21] = assay: Biodistribution in Sprague-Darwley rat lung at 15 min after intravenous administration of 70g; type: ADME, organism-based; settings: in vivo, 0.25 h
Rattus norvegicus [22] = assay: Biodistribution in Sprague-Darwley rat fat at 15 min after intravenous administration of 70g; type: ADME, organism-based, Adipose tissue; settings: in vivo, 0.25 h
Rattus norvegicus [23] = assay: Biodistribution in Sprague-Darwley rat fat at 120 min after intravenous administration of 70g; type: ADME, organism-based, Adipose tissue; settings: in vivo, 2 h
Rattus norvegicus [24] = assay: Biodistribution in Sprague-Darwley rat muscle at 15 min after intravenous administration of 70g; type: ADME, organism-based, Muscle tissue; settings: in vivo, 0.25 h
Rattus norvegicus [25] = assay: Biodistribution in Sprague-Darwley rat blood at 120 min after intravenous administration of 70g; type: ADME, organism-based; settings: in vivo, 2 h
Rattus norvegicus [26] = assay: Biodistribution in Sprague-Darwley rat muscle at 2 min after intravenous administration of 70g; type: ADME, organism-based, Muscle tissue; settings: in vivo
Rattus norvegicus [27] = assay: Biodistribution in Sprague-Darwley rat lung at 2 min after intravenous administration of 70g; type: ADME, organism-based; settings: in vivo
Rattus norvegicus [28] = assay: Biodistribution in Sprague-Darwley rat rest of brain at 30 min after intravenous administration of 70g; type: ADME, organism-based; settings: in vivo, 0.5 h
Rattus norvegicus [29] = assay: Biodistribution in Sprague-Darwley rat heart at 2 min after intravenous administration of 70g; type: ADME, organism-based; settings: in vivo
Rattus norvegicus [30] = assay: Biodistribution in Sprague-Darwley rat rest of brain at 15 min after intravenous administration of 70g; type: ADME, organism-based; settings: in vivo, 0.25 h
Rattus norvegicus [31] = assay: Biodistribution in Sprague-Darwley rat heart at 120 min after intravenous administration of 70g; type: ADME, organism-based; settings: in vivo, 2 h
Rattus norvegicus [32] = assay: Biodistribution in Sprague-Darwley rat fat at 2 min after intravenous administration of 70g; type: ADME, organism-based, Adipose tissue; settings: in vivo
Rattus norvegicus [33] = assay: Biodistribution in Sprague-Darwley rat lung at 30 min after intravenous administration of 70g; type: ADME, organism-based; settings: in vivo, 0.5 h
Rattus norvegicus [34] = assay: Biodistribution in Sprague-Darwley rat fat at 60 min after intravenous administration of 70g; type: ADME, organism-based, Adipose tissue; settings: in vivo, 1 h
Rattus norvegicus [35] = assay: Biodistribution in Sprague-Darwley rat liver at 2 min after intravenous administration of 70g; type: ADME, organism-based; settings: in vivo
Rattus norvegicus [36] = assay: Biodistribution in Sprague-Darwley rat muscle at 30 min after intravenous administration of 70g; type: ADME, organism-based, Muscle tissue; settings: in vivo, 0.5 h
Rattus norvegicus [37] = assay: Biodistribution in Sprague-Darwley rat kidney at 15 min after intravenous administration of 70g; type: ADME, organism-based; settings: in vivo, 0.25 h
Rattus norvegicus [38] = assay: Biodistribution in Sprague-Darwley rat heart at 15 min after intravenous administration of 70g; type: ADME, organism-based; settings: in vivo, 0.25 h
Rattus norvegicus [39] = assay: Biodistribution in Sprague-Darwley rat muscle at 120 min after intravenous administration of 70g; type: ADME, organism-based, Muscle tissue; settings: in vivo, 2 h
Rattus norvegicus [40] = assay: Biodistribution in Sprague-Darwley rat kidney at 2 min after intravenous administration of 70g; type: ADME, organism-based; settings: in vivo

ID/g (Rattus norvegicus [1]): 0.681%
ID/g (Rattus norvegicus [2]): 0.297%
ID/g (Rattus norvegicus [3]): 0.305%
ID/g (Rattus norvegicus [4]): 0.167%
ID/g (Rattus norvegicus [5]): 1.281%
ID/g (Rattus norvegicus [6]): 3.69%
ID/g (Rattus norvegicus [7]): 0.224%
ID/g (Rattus norvegicus [8]): 1.779%
ID/g (Rattus norvegicus [9]): 0.213%
ID/g (Rattus norvegicus [10]): 0.386%
ID/g (Rattus norvegicus [11]): 0.316%
ID/g (Rattus norvegicus [12]): 0.202%
ID/g (Rattus norvegicus [13]): 0.128%
ID/g (Rattus norvegicus [14]): 0.185%
ID/g (Rattus norvegicus [15]): 3.309%
ID/g (Rattus norvegicus [16]): 1.075%
ID/g (Rattus norvegicus [17]): 1.346%
ID/g (Rattus norvegicus [18]): 2.987%
ID/g (Rattus norvegicus [19]): 0.344%
ID/g (Rattus norvegicus [20]): 2.892%
ID/g (Rattus norvegicus [21]): 0.83%
ID/g (Rattus norvegicus [22]): 0.511%
ID/g (Rattus norvegicus [23]): 1.128%
ID/g (Rattus norvegicus [24]): 0.379%
ID/g (Rattus norvegicus [25]): 0.192%
ID/g (Rattus norvegicus [26]): 0.364%
ID/g (Rattus norvegicus [27]): 4.24%
ID/g (Rattus norvegicus [28]): 0.283%
ID/g (Rattus norvegicus [29]): 3.285%
ID/g (Rattus norvegicus [30]): 0.63%
ID/g (Rattus norvegicus [31]): 0.151%
ID/g (Rattus norvegicus [32]): 0.241%
ID/g (Rattus norvegicus [33]): 0.434%
ID/g (Rattus norvegicus [34]): 1.071%
ID/g (Rattus norvegicus [35]): 4.121%
ID/g (Rattus norvegicus [36]): 0.255%
ID/g (Rattus norvegicus [37]): 1.291%
ID/g (Rattus norvegicus [38]): 0.721%
ID/g (Rattus norvegicus [39]): 0.107%
ID/g (Rattus norvegicus [40]): 3.117%
Substance: [N-(2-Mercapto-2-methylpropyl)-N-(4-methoxyphenyl)-aminato][2-(mercaptomethyl)pyridinato]oxotechnetium V

Reference: ChEMBL document CHEMBL1127815, “Homodimeric and heterodimeric bis(amino thiol) oxometal complexes with rhenium(V) and technetium(V). Control of heterodimeric complex formation and an approach to metal complexes that mimic steroid hormones” (J Med Chem, 1994)
